Earlier results as cited in US20230165838A1, “TREATMENT FOR ACUTE RESPIRATORY DISTRESS SYNDROME” (DIMERIX BIOSCIENCE LTD., priority 2020, published 2023).

Test system: monocytes
Settings: MCP-1 induced; mechanism seems to require GPI-anchored proteins such as CD55, CD59 and CD16 (Yokochi, S. 2001)

O=C(O)C[CH2][Ge](=[O])[O][Ge](=[O])[CH2]CC(=O)O [Propagermanium, 3-[(2-Carboxyethyl-oxogermyl)oxy-oxogermyl]propanoic acid]
in vitro chemotactic migration of monocytes by MCP-1: specifically inhibit
